Source: US8377923B2, “Triazole derivative or salt thereof” (Astellas Pharma Inc., priority 2008, dated 2013)
Where a name gives a salt, the structure may show the parent alone.

Legend:
[1] = target: T1, human recombinant 11β-HSD1 (Homo sapiens, UniProt P28845); assay: Measuring test for human 11β-HSD1 inhibitory activity (HTRF cortisol detection); type: biochemical; conditions: human recombinant 11β-HSD1, 200 nM cortisone, 40 μM NADPH, pH 6.6, room temperature 1 h
T1 construct: made in house
Experimental: (§1) Test Method 1: Measuring Test for Human 11β-HSD1 and 11β-HSD2 Inhibitory Activities
The procedure for measuring 11β-HSD1-inhibitory action was as follows. In this connection, the enzyme reaction and measurement were carried out using a 384-well plate. The enzyme was prepared in accordance with a document (Walker E. A. et al., Journal of Biological Chemistry, 2001, vol. 276, p. 21343-21350). The reaction was carried out by adding the compound to be tested with various concentrations to a reaction liquid consisting of 10 mM phosphate buffer (pH 6.6), 200 nM cortisone, 40 μM reduced nicotinamide adenine dinucleotide phosphate (NADPH) and human recombinant 11β-HSD1, and then incubating the same at room temperature for one hour (10 μl/well). The compound to be tested was prepared by dissolving in dimethyl sulfoxide (DMSO) to a DMSO concentration of 1% in the reaction liquid. After the enzyme reaction was completed, the enzyme inhibitory action was measured by detecting cortisol using a homogeneous time-resolved fluorescence method (HTRF). Each of the XL-665-labeled cortisol containing 400 μM carbenoxolone and cryptate-labeled cortisol antibody (CIS bio international Co., Ltd.) was added in 5 μl/well portions and incubated at room temperature for 2 hours, and then the fluorescence intensity was measured using a fluorophotometer (trade name: Discovery, Perkin Elmer Inc.), and the enzyme inhibitory action was calculated from the fluorescence intensity ratio at two wavelengths (665 nm/620 nm).
(§2) The measured result was calculated by averaging the values of 3 wells of the same condition. The ratio when DMSO was added instead of the compound to be tested was regarded as 0% and the ratio when 11β-HSD1 or 11β-HSD2 was not added was regarded as 100%, thereby calculating 50% inhibition concentration of the compound to be tested as IC50 of the compound inhibitory action.

[2] = target: T2, human recombinant 11β-HSD2 (Homo sapiens, UniProt P80365); assay: Measuring test for human 11β-HSD2 inhibitory activity (HTRF cortisol detection); type: biochemical; conditions: human recombinant 11β-HSD2, 200 nM cortisol, 200 μM NAD, pH 8.0, 37° C. 2 h
T2 sequence (P80365 1-405): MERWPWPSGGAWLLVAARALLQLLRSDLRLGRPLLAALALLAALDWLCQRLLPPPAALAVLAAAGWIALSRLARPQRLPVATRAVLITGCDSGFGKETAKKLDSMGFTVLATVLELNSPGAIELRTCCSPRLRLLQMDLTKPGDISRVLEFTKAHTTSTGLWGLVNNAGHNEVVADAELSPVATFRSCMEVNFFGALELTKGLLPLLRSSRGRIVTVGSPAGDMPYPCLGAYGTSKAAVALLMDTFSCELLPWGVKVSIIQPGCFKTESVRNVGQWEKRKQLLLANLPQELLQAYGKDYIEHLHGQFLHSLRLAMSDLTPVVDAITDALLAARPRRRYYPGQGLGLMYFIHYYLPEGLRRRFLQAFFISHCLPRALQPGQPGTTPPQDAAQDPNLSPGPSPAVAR
Experimental: as §1
Measurement of the 11β-HSD2 inhibitory activity was carried out in the same manner as in the 11β-HSD1 inhibitory activity measurement, except for the enzyme reaction conditions. The enzyme reaction was carried out by adding the compound to be tested with various concentrations to a reaction liquid consisting of 40 mM Tris-HCl buffer (pH 8.0), 200 nM cortisol, 200 μM nicotinamide adenine dinucleotide (NAD) and human recombinant 11β-HSD2, and then incubating the same at 37° C. for 2 hours (10 μl/well).
as §2

male ddY mice = assay: Scopolamine-induced impairment of spontaneous alternation behavior test (Y-maze); type: in vivo, mouse; conditions: oral, scopolamine 0.5 mg/kg i.p., Y-maze 8 minutes
Experimental: Test Method 5: Scopolamine-Induced Impairment of Spontaneous Alternation Behavior Test
The compound to be tested was orally administered to male ddY mice of 5 to 7 weeks of age and scopolamine was intraperitoneally administered at 0.5 mg/kg after 10 minutes. After more 20 minutes, the animals were put in a Y-maze having arms of equivalent lengths into three directions and were allowed to freely search for 8 minutes. In this time, spontaneous alternation behavior to the arm (consecutive approach three times to different arms) was counted and a spontaneous alternation rate (spontaneous alternation behavior÷(approach number−2)×100) was calculated to evaluate pharmaceutical efficacy.

ob/ob mice = assay: Ob/ob mouse blood-glucose lowering test; type: in vivo; conditions: bid, oral, 14 days, male ob/ob mice, 12 hours after final administration
Experimental: Test Method 2: Ob/Ob Mouse Blood-Glucose Lowering Test
A compound liquid was prepared using 6% 2-hydroxypropyl-β-cyclodextrin as a solvent. Using 7 weeks-old male ob/ob mice (blood-glucose level of 300 mg/dL or more), blood-glucose levels were measured under non-fasting conditions and then the mice were divided into groups so that the blood-glucose levels became uniform among the groups. The compound to be tested was orally administered twice per day repeatedly for 14 days (3 or 10 mg/kg, bid) and a basal blood-glucose level was measured 12 hours after final administration (n=6 to 10). Similarly, the compound to be tested was orally administered twice per day repeatedly for […] (3 or 10 mg/kg, bid) and a blood glucose at fasting was measured under fasting conditions 12 hours after final administration. The blood-glucose level was measured by carrying out colorimetric determination of the amount of glucose (mg/dl) in heparin blood plasma obtained by collecting blood in a heparin-coated glass capillary and subsequently centrifuging the same.

[3] = test system: CYP3A (human CYP3A gene promoter, via PXR); assay: Human CYP3A enzyme inducibility test (PXR/CYP3A promoter luciferase reporter in HepG2); type: cell-based; conditions: HepG2 cells, 16 hours after addition of the drug
Experimental: Test Method 6: Human CYP3A Enzyme Inducibility Test
3E+6 (n) Human hepatoma-derived cell lines, HepG2, were seeded on a 10 cm collagen-coated dish. Human PXR expression vectors, luciferase reporter vector in which a human CYP3A gene promoter region is inserted, and renilla expression vector as a control were transiently introduced 6 hours after cell seeding. The entire cells were further seeded on 384-well plates 16 hours after introduction, and a drug dissolved in DMSO was added thereto 6 hours after seeding. Luciferase activity of the reporter gene and control gene were measured 16 hours after addition of the drug, a value corrected by a control was regarded as an active value, and the value obtained by dividing by an activity value in which no drug was added was calculated as a fold induction.

T1 sequence (P28845 whole entry): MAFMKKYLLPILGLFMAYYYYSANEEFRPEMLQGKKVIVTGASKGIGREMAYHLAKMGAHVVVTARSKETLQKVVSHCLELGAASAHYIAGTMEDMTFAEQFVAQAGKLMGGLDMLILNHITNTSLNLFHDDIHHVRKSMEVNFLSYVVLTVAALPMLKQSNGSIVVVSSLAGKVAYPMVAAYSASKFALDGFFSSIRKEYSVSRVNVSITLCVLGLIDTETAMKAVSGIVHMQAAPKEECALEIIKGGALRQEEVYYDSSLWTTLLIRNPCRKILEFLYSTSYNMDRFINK

Structure (SMILES)	IC50 [1]	IC50 [2]	fold induction at 16 h, 3 µM [3]	Minimal effective dose for spontaneous alternation rate (male ddY mice)	Basal blood-glucose lowering activity (%) (ob/ob mice; 10 mg/kg)	Basal blood-glucose lowering activity (%) (ob/ob mice; 3 mg/kg)
CCn1c(-c2ccc3cn[nH]c3c2)nnc1C(C)(C)Oc1c(F)cc(Cl)cc1F [Example 83, 6-{5-[1-(4-chloro-2,6-difluorophenoxy)-1-methylethyl]-4-ethyl-4H-1,2,4-triazol-3-yl}-1H-indazole]	0.023 µM	> 10 µM	–	–	–	–
Cn1c(-c2ccccc2C(F)(F)F)nnc1C(C)(C)Oc1ccc(C(F)(F)F)cc1Cl [Example 204]	0.12 µM	> 10 µM	–	–	29% (10 mg/kg)	–
CC(C)(Oc1ccc(F)cc1F)c1nnc(-c2ccc(C(N)=O)cc2F)n1C1CC1 [Example 355]	0.027 µM	> 10 µM	–	–	–	–
Cn1c(-c2ccc(F)c3ccccc23)nnc1C(C)(C)Oc1c(F)cc(F)cc1F [Example 373]	0.1 µM	> 100 µM	–	–	–	–
Cn1c(-c2cc(Cl)ccc2Cl)nnc1C(C)(C)Oc1c(F)cc(F)cc1F [Example 374]	0.05 µM	> 30 µM	–	–	–	–
CCn1c(-c2ccc(C(N)=O)cc2)nnc1C(C)(C)Oc1c(F)cc(Cl)cc1F [Example 509]	0.021 µM	> 10 µM	–	0.01 mg/kg	–	–
CC(C)(Oc1cc(F)c(F)cc1F)c1nnc(-c2ccc(C(N)=O)cc2F)n1C1CC1 [Example 525]	0.029 µM	> 10 µM	–	–	–	–
CC(C)n1c(-c2ccc(C(N)=O)cc2)nnc1C(C)(C)Oc1c(F)cc(F)cc1F [Example 531]	0.05 µM	> 10 µM	–	–	–	–
CC(C)n1c(-c2ccc(C(N)=O)cc2)nnc1C(C)(C)Oc1c(F)cc(Cl)cc1F [Example 535]	0.054 µM	> 10 µM	–	0.01 mg/kg	–	–
Cn1cc(-c2nnc(C(C)(C)Oc3c(F)cc(F)cc3F)n2C2CC2)c(Cl)n1 [Example 545]	0.073 µM	> 10 µM	–	–	–	–
CC(C)n1c(-c2ccc(C(N)=O)cc2)nnc1C(C)(C)Oc1c(F)cccc1F [Example 616]	0.02 µM	> 10 µM	–	–	–	–

These reach a lower IC50 [1]. Values come first.

IC50 [1]	IC50 [2]	fold induction at 16 h, 3 µM [3]	Structure (SMILES)	Minimal effective dose for spontaneous alternation rate (male ddY mice)	Basal blood-glucose lowering activity (%) (ob/ob mice; 10 mg/kg)	Basal blood-glucose lowering activity (%) (ob/ob mice; 3 mg/kg)
0.015 µM	> 10 µM	–	Cn1c(-c2ccncc2C(F)(F)F)nnc1C(C)(C)Oc1c(F)cc(Cl)cc1F [Example 544]	–	–	–
0.013 µM	> 10 µM	–	CCn1c(N2CCc3[nH]ncc3C2)nnc1C(C)(C)Oc1c(F)cc(F)cc1F [Example 87, 5-{4-ethyl-5-[1-methyl-1-(2,4,6-trifluorophenoxy)ethyl]-4H-1,2,4-triazol-3-yl}-4,5,6,7-tetrahydro-1H-pyrazolo[4,3-c]pyridine dihydrochloride]	–	–	–
0.013 µM	> 3 µM	–	Cn1c(-c2sc(N)nc2C(F)(F)F)nnc1C(C)(C)Oc1c(F)cc(Cl)cc1F [Example 587]	–	–	–
0.012 µM	> 10 µM	–	Cn1c(-c2ccc(F)cc2Br)nnc1C(C)(C)Oc1ccc(Cl)cc1 [Example 215]	0.01 mg/kg	–	–
0.01 µM	> 3 µM	–	CC(C)(Oc1c(F)cc(Cl)cc1F)c1nnc(-c2cc3c(cc2F)C(=O)NC3)n1C1CC1 [Example 580]	–	–	–
0.0087 µM	> 3 µM	–	C[C@H](Oc1ccc(C(N)=O)cc1Br)c1nnc(-c2ccccc2C(F)(F)F)n1C [Example 127]	–	–	–
0.008 µM	> 3 µM	–	CCn1c(-c2ccc3c(c2)CNC3=O)nnc1C(C)(C)Oc1c(F)cc(F)cc1F [Example 518]	–	–	–
0.0055 µM	> 3 µM	–	Cn1c(-c2ccccc2C(F)(F)F)nnc1C(C)(C)Oc1ccc(Cl)cc1-c1nnco1 [Example 69, 2-[5-chloro-2-(1-methyl-1-{4-methyl-5-[2-(trifluoromethyl)phenyl]-4H-1,2,4-triazol-3-yl}ethoxy)phenyl]-1,3,4-oxadiazole]	–	32% (10 mg/kg)	–
0.0053 µM	> 3 µM	–	Cn1c(-c2ccc(F)cc2Cl)nnc1C(C)(C)Oc1c(F)cc(F)cc1F [Example 65, 3-(2-chloro-4-fluorophenyl)-4-methyl-5-[1-methyl-1-(2,4,6-trifluorophenoxy)ethyl]-4H-1,2,4-triazole monohydrochloride]	0.01 mg/kg	–	–
0.0046 µM	> 3 µM	–	Cn1c(-c2ccccc2C(F)(F)F)nnc1C(C)(C)Oc1ccc(Br)cn1 [Example 148]	0.03 mg/kg	–	–
0.0033 µM	> 3 µM	–	Cn1c(-c2ccc(C(N)=O)cc2F)nnc1C(C)(C)Oc1c(F)cc(Cl)cc1F [Example 186]	0.03 mg/kg	–	23% (3 mg/kg)
0.003 µM	> 3 µM	–	Cn1c(-c2ccccc2C(F)(F)F)nnc1C(C)(C)Oc1ccc(Cl)cc1 [Example 64, 3-[1-(4-chlorophenoxy)-1-methylethyl]-4-methyl-5-[2-(trifluoromethyl)phenyl]-4H-1,2,4-triazole monohydrochloride]	0.001 mg/kg	–	–
0.003 µM	> 3 µM	1.24	Cn1c(-c2ccc(C(N)=O)cc2Cl)nnc1C(C)(C)Oc1c(F)cc(F)cc1F [Example 175]	–	–	20% (3 mg/kg)
0.0029 µM	> 3 µM	–	Cn1c(-c2ccc(C(N)=O)cc2Cl)nnc1C(C)(C)Oc1c(F)cc(Cl)cc1F [Example 185]	–	–	–
